A word on the EC50: it is the concentration at which the effect is half-maximal. Usually AC50 stands for the concentration at which the activity in the assay is half-maximal. What is called CC50 is the concentration giving 50% cytotoxicity.

The test system of test [1] is BJ. Briefly: cytotoxicity toward BJ-TERT fibroblasts, dose response, cell-based, RAS-independent, luminescence (AID 1933). The settings on record: Homo sapiens. The test is classed as functional.
A short description of test [2]: cytotoxicity toward DRD oncogenic fibroblasts, dose response, cell-based, non-viral oncogenic, luminescence (AID 1934). In kind it is functional. The settings on record: Homo sapiens.
Test [3] concerns BJ. Briefly: cells. The settings on record: Homo sapiens. In kind it is functional, cell-based.
Test [4] concerns BJ. The experiment in a line: cytotoxicity toward BJ-TERT-LT-ST fibroblasts, dose response, cell-based, RAS-independent, luminescence (AID 1935).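 Note: BJ fibroblasts immortalized with TERT plus LT and ST oncogenes.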 The test is classed as functional. Conditions: Homo sapiens.
Test [5] concerns the target Peroxisome proliferator-activated receptor gamma/Nuclear receptor coactivator 3 (Homo sapiens, UniProt P37231). The experiment in a line: TR-FRET dose response biochemical High Throughput Screening assay for agonists of the steroid receptor coactivator 3 (SRC-3) recruitment by the peroxisome proliferator-activated receptor gamma (PPAR gamma): non-selective agonists. [Related pubchem assays: 1301 (Confirmation screen.), 1048 (Primary screen.)]. The test is classed as functional. Background: In TR-FRET formats the signal depends on donor and acceptor labels being close together.

Test [6] has as its target Peroxisome proliferator-activated receptor gamma/Nuclear receptor coactivator 2 (Homo sapiens, UniProt P37231). Briefly: TR-FRET dose response biochemical High Throughput Screening assay for agonists of the steroid receptor coactivator 2 (SRC-2) recruitment by the peroxisome proliferator-activated receptor gamma (PPAR gamma): non-selective agonists. [Related pubchem assays: 1297, 1032 ]. In kind it is functional.

Test [7] has as its target Peroxisome proliferator-activated receptor gamma/Nuclear receptor coactivator 1 (Homo sapiens, UniProt P37231). Briefly: TR-FRET dose response biochemical High Throughput Screening assay for agonists of the steroid receptor coactivator 1 (SRC-1) recruitment by the peroxisome proliferator-activated receptor gamma (PPAR gamma): non-selective agonists. [Related pubchem assays (depositor defined):AID1300, AID1808, AID504735, AID631]. In kind it is protein assay.

Test [8] can be described thus: off-target signal loss in HeLa-CEM21 co-culture – HeLa F-luc CTL cells, cherry-picked, counter-screen for HIV-1 Env fusion inhibitor project, dose response (AID 652040).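 Note: potency for signal decrease marking cytotoxic or nonspecific inhibition.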 The test is classed as functional, cell-based. In general terms: A counterscreen serves to expose hits that act by an unwanted route or on another target.
Test [9] is described as follows: HEp-2 cell cytotoxicity, dose response, cytotoxicity control for RSV inhibitor project, HTS (AID 2410). The test is classed as functional. The settings on record: human respiratory syncytial virus.
Test [10] can be described thus: inhibitors of HIV Env-driven cell fusion, dose response, cherry-pick (AID 652057). In kind it is functional, cell-based.
Test [11] in a line: A cytotoxicity screen of small molecule inhibitors of the PhoP region in Salmonella typhi identified in the primary screen. [Related pubchem assays: 1850, 1864, 1985 ]. The test is classed as functional.
A short description of test [12]: inhibitors of clade B AD8 Env fusion, dose response, cell-based, cherry-pick (AID 652062).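 Note: luciferase signal from cell-cell fusion driven by HIV-1 clade B AD8 Env; potency is for inhibitors of fusion seen as a drop in luminescence.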 The test is classed as functional.
A short description of test [13]: ZM109 Env clade C HIV-1 fusion inhibitors, dose response, HeLa effector, CEM target cells, luciferase, cherry-pick (AID 652058). The test is classed as functional, cell-based.
For the next test, the target named is Kallikrein-7 (Homo sapiens, UniProt P49862). Briefly: Fluorescence Intensity-based biochemical primary high throughput dose response assay to identify activators of kallikrein-7 (K7) zymogen.
Kallikrein-7, sequence (P49862 whole entry): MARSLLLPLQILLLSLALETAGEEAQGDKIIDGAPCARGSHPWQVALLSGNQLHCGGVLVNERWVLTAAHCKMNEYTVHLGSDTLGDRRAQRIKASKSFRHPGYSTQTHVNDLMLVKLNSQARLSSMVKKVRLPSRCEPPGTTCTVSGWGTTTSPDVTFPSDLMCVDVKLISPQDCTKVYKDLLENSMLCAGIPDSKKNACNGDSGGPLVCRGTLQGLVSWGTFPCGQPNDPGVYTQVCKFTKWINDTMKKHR
Test [14] deals with FAD-linked sulfhydryl oxidase ALR (Homo sapiens, UniProt P55789). The experiment in a line: inhibitors of human ALR sulfhydryl oxidase, dose response, biochemical, H2O2 detection, luminescence, cherry-pick (AID 493248).
FAD-linked sulfhydryl oxidase ALR, sequence (P55789 whole entry): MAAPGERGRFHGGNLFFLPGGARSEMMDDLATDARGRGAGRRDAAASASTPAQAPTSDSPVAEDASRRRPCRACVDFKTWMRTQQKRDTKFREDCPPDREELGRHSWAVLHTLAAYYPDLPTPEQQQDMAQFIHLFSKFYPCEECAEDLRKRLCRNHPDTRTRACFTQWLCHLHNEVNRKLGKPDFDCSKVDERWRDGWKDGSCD
For test [15], the target named is Voltage-dependent T-type calcium channel subunit alpha-1H (Homo sapiens, UniProt O95180). The test is classed as functional.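 Note: channel activity triggered by adding a high calcium stimulation buffer.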
Test [16] in a line: A Cell Based Secondary Assay To Explore Cytotoxicity of Compounds that Sensitize Mycobacterium Tuberculosis to Beta-Lactam Antibiotics. In kind it is functional.

The structures appear in SMILES notation. Calls of active or inactive are those of the source.

Peroxisome proliferator-activated receptor gamma/Nuclear receptor coactivator 2, sequence (P37231 whole entry): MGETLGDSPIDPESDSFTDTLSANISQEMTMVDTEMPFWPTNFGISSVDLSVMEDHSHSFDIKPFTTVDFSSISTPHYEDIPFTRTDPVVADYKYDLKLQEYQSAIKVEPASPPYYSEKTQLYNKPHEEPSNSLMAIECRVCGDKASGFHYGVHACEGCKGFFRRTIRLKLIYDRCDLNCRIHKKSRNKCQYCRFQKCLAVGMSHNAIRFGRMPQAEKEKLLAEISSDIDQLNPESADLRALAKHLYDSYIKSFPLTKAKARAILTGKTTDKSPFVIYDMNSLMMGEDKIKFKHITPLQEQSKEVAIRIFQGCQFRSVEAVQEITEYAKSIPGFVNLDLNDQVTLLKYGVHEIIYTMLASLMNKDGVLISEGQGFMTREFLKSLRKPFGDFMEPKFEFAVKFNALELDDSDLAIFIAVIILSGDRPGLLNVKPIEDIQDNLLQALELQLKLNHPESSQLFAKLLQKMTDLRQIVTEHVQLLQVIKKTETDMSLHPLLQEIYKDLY
Peroxisome proliferator-activated receptor gamma/Nuclear receptor coactivator 2, sequence (Q15596 whole entry, further chain): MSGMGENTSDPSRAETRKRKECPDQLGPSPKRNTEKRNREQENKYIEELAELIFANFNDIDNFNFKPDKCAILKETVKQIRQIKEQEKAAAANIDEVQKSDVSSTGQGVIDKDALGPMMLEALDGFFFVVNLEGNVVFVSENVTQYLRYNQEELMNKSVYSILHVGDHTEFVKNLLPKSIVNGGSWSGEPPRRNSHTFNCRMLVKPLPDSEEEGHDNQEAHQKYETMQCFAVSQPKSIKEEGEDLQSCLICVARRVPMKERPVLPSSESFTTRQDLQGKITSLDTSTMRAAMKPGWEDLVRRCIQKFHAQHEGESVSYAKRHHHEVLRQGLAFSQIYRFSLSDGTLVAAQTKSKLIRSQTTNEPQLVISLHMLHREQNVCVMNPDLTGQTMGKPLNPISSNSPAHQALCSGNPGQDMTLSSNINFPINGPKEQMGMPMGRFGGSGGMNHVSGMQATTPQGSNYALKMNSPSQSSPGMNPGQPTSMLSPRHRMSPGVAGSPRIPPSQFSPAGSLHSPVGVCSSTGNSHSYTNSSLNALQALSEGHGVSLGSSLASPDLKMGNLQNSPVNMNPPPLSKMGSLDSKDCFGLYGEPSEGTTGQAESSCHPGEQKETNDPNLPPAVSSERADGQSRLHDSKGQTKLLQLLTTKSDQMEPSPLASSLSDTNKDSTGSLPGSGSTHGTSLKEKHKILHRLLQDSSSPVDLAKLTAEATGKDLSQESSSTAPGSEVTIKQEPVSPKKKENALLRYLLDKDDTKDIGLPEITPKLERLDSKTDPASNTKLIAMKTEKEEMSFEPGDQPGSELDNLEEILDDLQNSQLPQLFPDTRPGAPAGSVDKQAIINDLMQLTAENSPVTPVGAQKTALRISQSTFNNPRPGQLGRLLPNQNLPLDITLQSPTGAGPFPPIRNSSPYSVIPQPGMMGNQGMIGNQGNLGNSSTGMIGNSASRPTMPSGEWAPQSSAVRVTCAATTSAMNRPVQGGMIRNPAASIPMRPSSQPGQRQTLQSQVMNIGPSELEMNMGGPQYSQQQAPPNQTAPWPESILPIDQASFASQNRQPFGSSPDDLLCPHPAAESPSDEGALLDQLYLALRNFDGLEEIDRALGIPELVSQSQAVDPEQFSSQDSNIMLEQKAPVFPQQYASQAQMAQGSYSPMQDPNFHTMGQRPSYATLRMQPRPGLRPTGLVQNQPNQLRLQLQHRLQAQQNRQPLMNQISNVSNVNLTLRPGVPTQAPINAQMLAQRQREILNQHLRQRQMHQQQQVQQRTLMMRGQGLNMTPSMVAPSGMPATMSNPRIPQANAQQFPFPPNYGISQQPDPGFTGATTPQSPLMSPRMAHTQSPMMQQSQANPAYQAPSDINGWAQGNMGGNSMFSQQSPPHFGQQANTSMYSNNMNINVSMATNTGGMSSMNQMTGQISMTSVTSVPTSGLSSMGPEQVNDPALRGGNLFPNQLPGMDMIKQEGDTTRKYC
Peroxisome proliferator-activated receptor gamma/Nuclear receptor coactivator 1, sequence (P37231 whole entry): as the sequence (P37231 whole entry) above
Peroxisome proliferator-activated receptor gamma/Nuclear receptor coactivator 1, sequence (Q15788 whole entry, further chain): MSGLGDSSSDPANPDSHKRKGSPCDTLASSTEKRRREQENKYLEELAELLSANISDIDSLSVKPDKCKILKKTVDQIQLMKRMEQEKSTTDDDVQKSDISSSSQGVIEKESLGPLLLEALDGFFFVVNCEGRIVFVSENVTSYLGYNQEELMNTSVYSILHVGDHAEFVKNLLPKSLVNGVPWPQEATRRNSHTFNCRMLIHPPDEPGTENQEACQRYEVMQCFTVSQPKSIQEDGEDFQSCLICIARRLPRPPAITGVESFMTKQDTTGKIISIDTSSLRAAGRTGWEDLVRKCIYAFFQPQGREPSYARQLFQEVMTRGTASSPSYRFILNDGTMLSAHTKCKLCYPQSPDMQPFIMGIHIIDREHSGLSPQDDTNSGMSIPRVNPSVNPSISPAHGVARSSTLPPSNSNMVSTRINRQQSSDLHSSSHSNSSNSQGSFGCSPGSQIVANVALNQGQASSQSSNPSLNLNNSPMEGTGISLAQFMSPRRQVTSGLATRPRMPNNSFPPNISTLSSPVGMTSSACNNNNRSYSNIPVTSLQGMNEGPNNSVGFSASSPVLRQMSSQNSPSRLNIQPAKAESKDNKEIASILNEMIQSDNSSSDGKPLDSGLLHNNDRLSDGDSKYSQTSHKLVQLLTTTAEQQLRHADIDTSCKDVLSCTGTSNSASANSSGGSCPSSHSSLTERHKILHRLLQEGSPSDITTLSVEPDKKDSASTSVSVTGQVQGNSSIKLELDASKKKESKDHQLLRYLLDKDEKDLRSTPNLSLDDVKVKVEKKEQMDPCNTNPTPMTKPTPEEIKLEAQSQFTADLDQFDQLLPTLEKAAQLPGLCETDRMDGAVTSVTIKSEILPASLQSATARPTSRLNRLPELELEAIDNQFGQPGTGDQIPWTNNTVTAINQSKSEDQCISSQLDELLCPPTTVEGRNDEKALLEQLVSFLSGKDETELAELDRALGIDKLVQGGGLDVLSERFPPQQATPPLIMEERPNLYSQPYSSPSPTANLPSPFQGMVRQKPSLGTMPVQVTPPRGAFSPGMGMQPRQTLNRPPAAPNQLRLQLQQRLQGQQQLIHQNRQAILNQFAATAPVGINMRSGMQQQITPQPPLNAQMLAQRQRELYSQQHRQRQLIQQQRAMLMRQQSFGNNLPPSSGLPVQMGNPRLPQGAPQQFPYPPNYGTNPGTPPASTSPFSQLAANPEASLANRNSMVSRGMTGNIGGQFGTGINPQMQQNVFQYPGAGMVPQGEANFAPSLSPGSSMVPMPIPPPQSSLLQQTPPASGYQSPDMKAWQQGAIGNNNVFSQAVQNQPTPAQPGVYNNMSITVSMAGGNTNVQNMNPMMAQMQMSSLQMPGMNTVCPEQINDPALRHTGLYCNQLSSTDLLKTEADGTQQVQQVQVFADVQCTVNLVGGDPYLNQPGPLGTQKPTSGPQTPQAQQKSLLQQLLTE

As for `COc1cc(Nc2c3c(nc4ccccc24)CCC3)cc(OC)c1OC`, the EC50 in the test with BJ [1] was 2.86 µM (active); in test [2], 2.38 µM (active); with BJ [3] it was 42.7 µM (inconclusive); with BJ [4], 18.5 µM (inconclusive).

With `Clc1cccc(-c2ccc(/C=N/c3ccc(N4CCOCC4)cc3)o2)c1`, the values for the EC50 in [5], in test [6] and in test [7] were > 79.4 µM (not active), 28.6 µM (not active) and > 79.4 µM (inactive), respectively.

On to `Cn1c(=O)cc(SCC(=O)NCC2CCCO2)c2ccc(Cl)cc21` (stereo not given), for which the EC50 in [5] is > 79.4 µM (not active); in [6], > 26.5 µM (not active); in [7] it was > 79.4 µM (inactive).

In the case of `COC(=O)C1=C(C)N(CC2CC2)C(=O)N[C@H]1c1ccc(Br)cc1`, the AC50 in test [8] is 11.7 µM (active); in test [10], 7.14 µM (active); in test [12], 8.52 µM (active); in test [13], 14.7 µM (active). In addition, the CC50 in test [9] is 35.1 µM (active). The EC50 in test [11] was > 50 µM (active).

`CCOC(=O)c1sc(NC(=O)c2ccco2)nc1-c1ccccc1`: the EC50 is > 79.4 µM (not active) in test [5], 14.2 µM (not active) in test [6] and 24.3 µM (inactive) in [7].

Turning to `COC(=O)Cc1c(C)c2c(O)cc(C)cc2oc1=O`, the figures for the concentration for a half-maximal effect (EC50) in test [5], in test [6] and in test [7] were > 79.4 µM (not active), > 79.4 µM (not active) and > 79.4 µM (inactive), respectively.

For `CCCCc1cc(=O)oc2cc(C)cc(OCC(=O)N3CCC(C(=O)O)CC3)c12`, the EC50 at Kallikrein-7 was > 7.72 µM (active).

In the case of `Cc1ccc2[nH]c(C(=O)O)c(NC(=O)CN3CCN(c4cccc(C)c4C)CC3)c2c1`, in test [9], the CC50 is 13.9 µM (active). In test [14], the AC50 was 16.3 µM (active). Also, the EC50 in test [11] is > 50 µM (active); in test [15], 5.05 µM (active).

As to `COc1ccc(Cl)cc1NC(=O)CN(C)C(=O)c1ccc(N2CCCCCC2)c([N+](=O)[O-])c1`, the CC50 in test [16] is > 40 µM (active).

As for `Cc1cc2nc(-c3ccc(SCc4ccccn4)nc3)[nH]c2cc1C`, on Kallikrein-7, the EC50 is 12.9 µM (inactive).

Regarding `COc1ccccc1C(=O)N1CC2(C)CC1CC(C)(C)C2` (stereo not given), in test [11], the EC50 was > 50 µM (active).

For the origin of these results see ChEMBL document CHEMBL1201862, “PubChem BioAssay data set” (2004).
